# Reference: patent US10512700B2, “Radiohalide-labeled targeted diagnostics and therapeutics” (Memorial Sloan Kettering Cancer Center, priority 2014, dated 2019)
# Where two headings read alike, the source gives them in different places.
# What was measured:
# [1] = Plasma protein binding, Rapid Equilibrium Dialysis; format: in vitro ADME, mouse; set-up: fraction unbound at 4 h: dose or concentration left out as unconfirmed; details: 4 h at 37° C.; for % plasma free fraction: 10 μM in mouse serum; for Plasma protein binding: 500 μM in mouse serum
# Experimental: The plasma protein fraction was determined using the Rapid Equilibrium Dialysis Device System (LifeTechnologies, Grand Island, N.Y.) according to the manufacturer's protocol.
# For each of the iodinated compounds, membrane dialysis was performed with 10 μM of the compound in mouse serum (500 μL) on one side of the membrane and PBS (750 μL) on the other side. The system was sealed with parafilm and incubated for 4 h at 37° C. on an orbital shaker set to 250 rpm. Thereafter, 400 μL of solution was taken from both sides, and samples were treated twice with an equal amount of AcN and vortexed to remove protein before HPLC analysis. After injection (100 μL), the compound peaks from each sample were then integrated, and the protein bound fraction was determined as % bound=[1−(Concentration buffer chamber/Concentration plasma chamber)]×100. The data was analyzed using Prism 6.0c (GraphPad Software, La Jolla, Calif.).
# The system was sealed with parafilm and incubated for 4 h at 37° C. on an orbital shaker set to 100 rpm. Thereafter, 50 μL of solution was taken from both sides, and samples were treated with 300 μL of precipitation buffer (90/10 acetonitrile/water with 0.1% formic acid) and vortexed to remove protein before HPLC analysis. […] The data was analyzed using Prism 6.0c (GraphPad Software, La Jolla, Calif.).
# [2] = Blood half-life; format: in vivo, mouse; details: athymic nude mice, tail vein injection
# Experimental: The blood half-life was determined by measuring the activity in serial blood samplings. […] Measurements in counts per minute were calculated as the mean % ID/g. The blood half-life was calculated using Prism 6.0c (GraphPad Software, La Jolla, Calif.).
# The blood half-life was calculated by measuring the activity of blood samples collected at different time points p.i. […] The collected blood was weighed and counted in a WIZARD^2 automatic γ-counter (PerkinElmer, Boston, Mass.). The blood half-life was calculated using Prism 6.0c (GraphPad Software, La Jolla, Calif.) using a two-phase decay least squares fitting method and expressed as % ID/g.
# [3] = Stability in whole blood (in vitro); format: in vitro ADME; details: whole human blood, 37° C., 15 to 240 minutes
# Experimental: C-2f was then extracted with 750 μL of MeCN, then centrifuged (5 minutes at 5000 rpm) to pellet blood cells and proteins. The supernatant was collected and prepared for HPLC injection by adding 750 μL mQ H2O and filtering. The blood stability was measured by HPLC analysis (Method A).
# [4] = tested on: U251 MG tumor bearing mice; experiment: Biodistribution; format: in vivo, mouse; details: C-2f, i.v., 120 min post injection, unblocked
# Experimental: Biodistribution studies were conducted on female nude mice (8-10 weeks old and 20-25 g in weight, n=21) bearing U251 MG subcutaneous xenografts. The radiolabeled preparation (20-30 μCi of compound C-2d (^131I) in 200 μL of a solution 90% PBS 10% PEG300) was administrated via the lateral tail vein. The compound was allowed to circulate for 2 h post injection at which time mice were sacrificed and organs were harvested (n=3). The radioactive content in tissue of interest (blood, tumor, muscle, bone, liver, spleen, kidney, heart, lung, pancreas, brain, skin, small intestine, large intestine, stomach, tail, thyroid and feces) was measured on a Wizard 2470 Automatic Gamma Counter, and the tissue-associated activity was calculated as the mean % ID/g using the following formula: [(activity in the target organ/grams of tissue)/injected dose]×100%.
# Biodistribution studies were performed in subcutaneous U251 MG xenograft bearing athymic nude mice (n=12). Mice were divided in two groups (blocked and unblocked) and administered with C-2f (approximately 50 μCi, 45 mCi/μmol in […], 10% EtOH in 0.9% sterile saline) via tail vein injection. […] Mice were sacrificed by CO2 asphyxiation at 120 min post injection and major organs were collected, weighed, and counted in a WIZARD^2 automatic γ-counter (PerkinElmer, Boston, Mass.). The radiopharmaceutical uptake was expressed as a percentage of injected dose per gram (% ID/g) using the following formula: [(activity in the target organ/grams of tissue)/injected dose]×100%.
# [5] = tested on: orthotopic U251 MG tumor bearing mice; experiment: Autoradiography using C-2f; format: in vivo, mouse
# Experimental: One day after PET/CT imaging, the same orthotopic U251 MG tumor bearing mice of Example 4.1.3 were administered with C-2f (80 μCi, 45 mCi/μmol in 300 μL 10% EtOH in 0.9% sterile saline) via tail vein injection. […] The mice were sacrificed after 2 hours and brain and muscle tissues harvested. The collected organs were fixed in Tissue-Tek O.C.T. compound (Sakura Finetek, Torrance, Calif.) and flash-frozen in liquid nitrogen and cut into 20 μm sections using a Vibratome Ultra Pro 5000 Cryostat (Vibratome, St. Louis, Mo.). A storage phosphor autoradiography plate (Fujifilm, BAS-MS2325, Fuji Photo Film, Japan) was exposed to the tissue slices overnight at −20° C. and read the following day (images not shown). Relative count intensity of the sections in each image was quantified using ImageJ 1.47 u processing software (see FIGS. 6A and 6B). Tumor/muscle and brain/muscle ratios were calculated using Prism 6.0c (GraphPad Software, La Jolla, Calif.). The same sections were subsequently subjected to H&E staining (hematoxylin-eosin) for morphological evaluation of tissue pathology and to compare the localization of the radiotracer with the location of tumor tissue (images not shown).
# [6] = tested on: mice bearing orthotopic U251 MG; experiment: PET/CT imaging using C-2f; format: in vivo, mouse
# Experimental: Mice bearing orthotopic U251 MG (n=8) were divided in two groups (unblocked and blocked) and administered with C-2f (150 μCi, 45 mCi/μmol in 300 μL 10% EtOH in 0.9% sterile saline) via tail vein injection. […] Approximately 5 min prior to PET acquisition, mice were anesthetized by inhalation of a mixture of isoflurane (Baxter Healthcare, Deerfield, Ill., USA; 2% isoflurane, 2 L/min medical air) and positioned on the scanner bed. Anesthesia was maintained using a 1% isoflurane/O2 mixture. PET data for each mouse was recorded using static scans of 10 minutes and acquired at 30 and 120 minutes post injection. Quantification (see FIG. 8) and % ID/g values were calculated by manually drawing regions of interests in three different frames and determining the average values using ASI Pro VM™ MicroPET Analysis software (Siemens Medical Solutions, Knoxville, Tex.).
# [7] = Chromatographic Hydrophobicity Index (CHI) and log PCHI determination; format: physicochemical; details: for chromatographic logP: reverse phase HPLC, read-out: logPCHI
# Experimental: Chromatographic Hydrophobicity Index (CHI) was determined according to the procedures reported in K. Valko et al, “Chromatographic Hydrophobicity Index by Fast-Gradient RP-HPLC: A High-Throughput Alternative to log P/log D”, Anal. Chem. 1997, 69:2022-29, incorporated by reference herein in its entirety. Briefly, a series of standards with known CHIs were analyzed with reverse phase HPLC. Retention times of the standards along with their known CHIs were plotted with Prism 6.0c software (GraphPad, La Jolla, Calif.). A line was fit to the data to create a calibration curve, which was then used to calculate the CHI of the test chemical entity based on the HPLC retention time.
# The log PCHI value was determined according to K. Valko, 1997.
# [8] = target: T1, PARP1 (Homo sapiens, UniProt P09874); experiment: IC50 determination, Universal PARP Colorimetric Assay Kit; format: biochemical; details: Table 2, measured against PARP1
# T1 construct: purchased Trevigen
# Experimental: Inhibition of PARP1 was measured using the Universal PARP Colorimetric Assay Kit (Trevigen®, Gaithersburg, Md.). IC50 values were calculated using Prism 6.0c software (GraphPad, La Jolla, Calif.).
# All experiments were carried out in triplicate.
# [9] = tested on: V79 cells; details: DNA-incorporated; cited from earlier work
# [10] = tested on: U251 MG cells; experiment: In vitro blocking study, competitive inhibition of PARP1i-FL uptake; format: cell-based, human; details: 5 μM (10-fold excess) with PARP1i-FL 500 nM, 30 minutes
# Experimental: (§1) U251 MG or U373 MG (1×10^4 cells per well) cells were seeded into 12 wells each on a 96-well plate and cultured for 24 hours. […] Following incubation, cells were washed twice with media and twice with PBS and imaged with a Zeiss LSM 5Live confocal microscope (images not shown). Fluorescence intensity was then quantified from the images using ImageJ 1.47 u processing software (see FIG. 3).
# [11] = tested on: U373 MG cells; experiment: as above; format: cell-based, human; details: 5 μM (10-fold excess) with PARP1i-FL 500 nM, 30 minutes
# Experimental: as §1
# [12] = reported for olaparib; cited from earlier work
# T1 sequence (P09874 whole entry, species assumed): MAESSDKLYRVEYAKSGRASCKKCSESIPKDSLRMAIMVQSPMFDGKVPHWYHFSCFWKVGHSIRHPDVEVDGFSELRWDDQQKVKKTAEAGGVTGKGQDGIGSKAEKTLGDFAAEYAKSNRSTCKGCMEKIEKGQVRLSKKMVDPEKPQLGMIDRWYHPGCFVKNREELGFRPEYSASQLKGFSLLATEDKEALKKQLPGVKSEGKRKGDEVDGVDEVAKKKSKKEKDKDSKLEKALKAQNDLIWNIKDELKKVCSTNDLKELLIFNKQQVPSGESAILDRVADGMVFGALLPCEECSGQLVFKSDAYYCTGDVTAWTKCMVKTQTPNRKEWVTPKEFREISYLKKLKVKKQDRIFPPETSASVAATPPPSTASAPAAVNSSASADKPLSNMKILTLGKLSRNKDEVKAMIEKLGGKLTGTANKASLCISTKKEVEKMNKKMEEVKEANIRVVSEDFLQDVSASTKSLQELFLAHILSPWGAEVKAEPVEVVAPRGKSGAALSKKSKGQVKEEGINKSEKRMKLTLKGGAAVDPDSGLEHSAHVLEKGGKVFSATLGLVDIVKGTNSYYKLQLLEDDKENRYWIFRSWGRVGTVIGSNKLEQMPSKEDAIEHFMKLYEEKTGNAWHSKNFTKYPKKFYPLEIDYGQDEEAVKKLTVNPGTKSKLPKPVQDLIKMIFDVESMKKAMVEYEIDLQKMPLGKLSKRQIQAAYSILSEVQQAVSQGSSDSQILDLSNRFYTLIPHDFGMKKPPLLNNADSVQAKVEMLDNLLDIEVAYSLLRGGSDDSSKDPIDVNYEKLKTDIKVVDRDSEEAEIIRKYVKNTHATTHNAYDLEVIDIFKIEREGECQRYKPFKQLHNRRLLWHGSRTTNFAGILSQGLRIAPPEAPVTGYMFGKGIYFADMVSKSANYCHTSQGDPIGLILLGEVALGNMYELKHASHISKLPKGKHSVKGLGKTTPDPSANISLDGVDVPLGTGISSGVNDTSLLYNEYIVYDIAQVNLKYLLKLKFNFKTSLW
smiles,measurement,setting,value
"O=C(c1ccc(I)cc1)N1CCN(C(=O)c2cc(Cc3n[nH]c(=O)c4ccccc34)ccc2F)CC1 [c-2 (^127I), 4-(4-fluoro-3-(4-(4-iodobenzoyl)piperazine-1-carbonyl)benzyl)-phthalazin-1(2H)-one]",% plasma free fraction,[1],11.5 ± 0.1%
O=C(c1ccc([18F])cc1)N1CCN(C(=O)c2cc(Cc3n[nH]c(=O)c4ccccc34)ccc2F)CC1 [C-2f (^18F)],alpha blood half-life,[2],1.27 min
same,beta blood half-life,[2],31.14 min
same,"beta blood half-life, share of phase",[2],14.49%
same,weighted blood half-life,[2]; 50 μCi,5.6 min
same,in vitro blood stability,[3],excellent stability
same,in vitro blood stability,[3]; listed as C-2f,no radioactive metabolites were observed
same,"% ID/g, Brain",[4],0.04±0.01 % ID/g
same,"% ID/g, Muscle",[4],0.37±0.09 % ID/g
same,"% ID/g, Tumor",[4],1.82±0.21 % ID/g
same,"autoradiography, retention in orthotopic tumor","[5]; C-2f only, 2 hours",46.66±14.94 AU
same,"autoradiography, retention in surrounding brain","[5]; C-2f only, 2 hours",0.06±0.02 AU
same,"autoradiography, muscle tissue",[5]; healthy mice,1.50±0.31 AU
same,reduction of C-2f by preinjection of olaparib,[5]; orthotopic tumor,99%
same,"autoradiography, retention in orthotopic tumor",[5]; preinjection of olaparib,0.44±0.41 AU
same,"autoradiography, retention in surrounding brain",[5]; preinjection of olaparib,0.03±0.01 AU
same,"autoradiography, muscle tissue",[5]; tumor-bearing mice,1.36±0.21 AU
same,PET retained activity in tumor,[6]; animals receiving only C-2f,2.15±0.79 % ID/g
same,PET retained activity in tumor,[6]; animals that received both olaparib and C-2f,0.28±0.01 % ID/g
same,"PET retained activity, C-2f only vs olaparib and C-2f","[6]; mouse, in vivo",eight-fold higher
"O=C(Cc1cccc(I)c1)N1CCN(C(=O)c2cc(Cc3n[nH]c(=O)c4ccccc34)ccc2F)CC1 [c-3 (^127I), 4-(4-fluoro-3-(4-(2-(3-iodophenyl)acetyl)piperazine-1-carbonyl)-benzyl)phthalazin-1(2H)-one]",CHI,[7]; Table 2,66.7
same,chromatographic logP,[7]; Table 2,2.7
same,% plasma free fraction,[1],7.0 ± 0.1%
same,IC50,[8],34 ± 3 nM
"O=c1[nH]c(=O)n([C@H]2C[C@H](O)[C@@H](CO)O2)cc1I [^123I-IdUrd, 5-iodo-2′-deoxy uridine]",RBE,[9],~7
"O=C(CCc1cccc(I)c1)N1CCN(C(=O)c2cc(Cc3n[nH]c(=O)c4ccccc34)ccc2F)CC1 [c-5 (^127I), 4-(4-fluoro-3-(4-(3-(3-iodophenyl)propanoyl)piperazine-1-carbonyl)benzyl)phthalazin-1(2H)-one]",CHI,[7]; Table 2,71.6
same,chromatographic logP,[7]; Table 2,3
same,% plasma free fraction,[1],7.8 ± 1.4%
same,IC50,[8],107 ± 4 nM
"O=C(Cc1ccc(I)cc1)N1CCN(C(=O)c2cc(Cc3n[nH]c(=O)c4ccccc34)ccc2F)CC1 [c-4 (^127I), 4-(4-fluoro-3-(4-(2-(4-iodophenyl)acetyl)piperazine-1-carbonyl)-benzyl)phthalazin-1(2H)-one]",CHI,[7]; Table 2,66.7
same,chromatographic logP,[7]; Table 2,2.7
same,% plasma free fraction,[1],5.0 ± 0.3%
same,IC50,[8],74 ± 5 nM
"O=C(c1cccc(I)c1)N1CCN(C(=O)c2cc(Cc3n[nH]c(=O)c4ccccc34)ccc2F)CC1 [c-1 (^127I), 4-(4-fluoro-3-(4-(3-iodobenzoyl)piperazine-1-carbonyl)benzyl)-phthalazin-1(2H)-one]",% plasma free fraction,[1],9.6 ± 1.5%
O=C(c1ccc(F)cc1)N1CCN(C(=O)c2cc(Cc3n[nH]c(=O)c4ccccc34)ccc2F)CC1 [c-2 (^19F)],CHI,[7]; Table 3,57.5
same,logPCHI,[7]; Table 3,2.15±0.41
same,chromatographic logP,[7]; Table 3,2.15 ± 0.41
same,Plasma protein binding,[1],63.9 ± 12.6%
same,fraction unbound at 4 h,"[1]; mouse, mouse serum",0.36
same,reduction of fluorescence intensity in the nucleus,[10],80.0%±10.8%
same,reduction of fluorescence intensity in the nucleus,[11],78.8%±10.4%
"O=C(c1cc(Cc2n[nH]c(=O)c3ccccc23)ccc1F)N1CCN(C(=O)C2CC2)CC1 [olaparib, 4-[3-(4-cyclopropanecarbonylpiperazine-1-carbonyl)-4-fluorobenzyl]-2H-phthalazin-1-one, reference compound]",Plasma protein binding,[1],65%
same,reduction of fluorescence intensity in the nucleus,[10],69.6%±22.3%
same,reduction of fluorescence intensity in the nucleus,[11],71.2%±20.0%
same,CHI,[12],34.1
same,logPCHI,[12],0.8
"O=C(CCc1ccc(I)cc1)N1CCN(C(=O)c2cc(Cc3n[nH]c(=O)c4ccccc34)ccc2F)CC1 [c-6 (^127I), 4-(4-fluoro-3-(4-(3-(4-iodophenyl)propanoyl)piperazine-1-carbonyl)benzyl) phthalazin-1(2H)-one]",CHI,[7]; Table 2,71.6
same,chromatographic logP,[7]; Table 2,3
same,% plasma free fraction,[1],4.7 ± 0.5%
same,IC50,[8],47 ± 5 nM
